Source: US9939427B2, “Method for evaluating the scent performance of perfumes or perfume mixtures” (Symrise AG, priority 2013, dated 2018)

Columns and labels:
[1] = target: T1, OR10Q1 (Homo sapiens, UniProt Q8NGQ4); experiment: Ca-imaging of OR10Q1-transfected HEK293 cells; format: cell-based; parameters: key to OR10Q1 responded to odorant: ▪: 18 olfactory receptors responded to 32 odorants in related with specific anosmia; details: for Response of OR10Q1 to odorant, in words: single odorants 200 μM
T1 construct: specific primers, which amplify the complete open reading frame; expressed in transfected cells; host or cells: HEK293
T1 sequence (Q8NGQ4 1-319): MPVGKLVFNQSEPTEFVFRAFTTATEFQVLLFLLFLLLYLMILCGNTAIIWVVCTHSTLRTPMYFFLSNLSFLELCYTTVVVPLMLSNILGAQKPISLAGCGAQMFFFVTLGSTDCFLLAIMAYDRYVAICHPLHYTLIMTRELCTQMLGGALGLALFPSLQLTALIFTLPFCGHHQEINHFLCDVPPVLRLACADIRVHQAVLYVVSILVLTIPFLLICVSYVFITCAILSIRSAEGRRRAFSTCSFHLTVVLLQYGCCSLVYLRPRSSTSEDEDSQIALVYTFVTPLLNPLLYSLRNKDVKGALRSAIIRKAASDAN
Method: HEK293 cells were cultivated in Petri dishes (Ø35 mm) as previously described (Benbernou et al. 2007). We grow up HEK293 cells in culture medium containing standard DMEM with 10% heat-inactivated fetal bovine serum, 2 mM L-glutamine, 100 units/ml penicillin, and 100 units/ml streptomycin in a humidified atmosphere (37° C., 5% CO2). After 2-3 days, the transfection process was carried out, whereby the cell culture was 70-80% confluent. The calciumphosphate method was applied to transfect DNA plasmid transiently in HEK293 cells in case of Ca-imaging method.
Calcium cations and phosphate anions created crystal precipitations coupled with DNA which could invade into the cells through endocytosis. Cells were transiently transfected with plasmid DNA which consists of pCI expression vector and PCR-amplified full-length cDNA of olfactory receptors candidates, and also Gα15, RTP1, Myr-Ric8A, HSC70, and m-Cherry as cofactors. The precipitation could be created after 15-20 min, with dropping the transfection solution on HEK293 cells. Before measuring by Ca-imaging cells were incubated 48-60 hours at 370 C, 5% CO2. Cationic liposome-mediated transfection method was applied to transfect DNA plasmid transiently in HANA3A cells in case of CRE-Luciferase and CRE-SEAP assays.
Calcium imaging of the transfected HEK293 cells was done by using chambers determinate an inverted microscope (Olympus; IX70) using a 10× objective (CPIanFL N Olympus). Fluorescence emission was determined every 4 s by using a CCD camera (Charge Coupled Device, C9100 Hamamatsu). The capillary tube which was responsible to supply odorants was generated closely above the cells. The columns filled with odorants, DMSO and ATP. Odorants were manually monitored to drop each 4-5 s to transfected cells. Solutions with drop wise form spread on HEK293 cells in 35 mm dishes.
In experiments, Fura-2 Acetoxymethylester (Fura-2/AM) was applied. The non-polar Fura2/AM is fluorescent but not yet calcium-sensitive. Once diffuses into cell plasma, Fura-2/AM is hydrolyzed to Fura-2 which is calcium-sensitive and functions as Ca2+ chelator. Regardless of the presence of calcium, Fura-2 emits at the wavelength of 510 nm. Once Fura-2 binds to free intracellular Ca2+ in cell plasma, its ratio of excitation at wavelengths of 340 nm and 380 nm is changed and correlated to the amount of intracellular Ca2+. According to this feature, the analysis of 340/380 nm excitation ratio for Fura-2 allows to quantify intracellular calcium levels.
In preparation for Ca-imaging measurements, transfected HEK293 cells were added 3 it Fura2/AM (3 μM) and incubated 30-45 min at 370 C, 5% CO2. After this step, experiments were carried out in a dark condition (Fura-2 is light-sensitive). After the incubation, medium of cell culture was replaced with 2 ml Ringer's solution.
Odorants were freshly prepared with DMSO as 1 M stocks solutions. Six mixtures (200 μM each chemical) were applied to cells sequentially (20 s each mixture/30 s Ringer). Those ORs tested with single odorants that had generated a response to odorant mixture group previously. Odorants were prepared in 100-200 μM concentration.
Ringer's solution was used for washing cells between measuring by two different odorants. Positive response was determined by the timing of the response, the strength of the response (more than twofold higher than the noise amplitude of the baseline), and the shape of the response curve (sharp rise in curve with gradual recovery). […]

[2] = system: HEK293 cells transfected with all cofactors and pCI plasmids without ORs; experiment: Ca-imaging of control HEK293 cells without OR; format: cell-based
Procedure, shortened: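 HEK293 cells transfected by calcium phosphate with empty pCI plus Gα15, RTP1, Myr-Ric8A, HSC70 and mCherry, incubated 48–60 h, then loaded with 3 µM Fura-2/AM for 30–45 min. Odorants in Ringer's applied as mixtures at 200 µM each or singly at 100–200 µM, with 0.25 mM ATP at the end. Ca2+ followed as 340/380 nm ratio every 4 s; responses as ΔF/F0, judged by timing, amplitude above twice baseline noise and curve shape.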

OR10Q1 responded to odorant ([1]; Ca-imaging, HEK293 cells, individual odorant 200 μM, significant response p<0.05): ▪ | Response of OR10Q1 to odorant, in words ([1]; Ca-imaging): responded | Response of OR10Q1 to odorant, in words ([1]; Ca-imaging, listed as Cyclopentadecanolide): significantly responded | Response of OR10Q1 to odorant, in words ([1]; Ca-imaging, listed as Pentadecalactone): responded | Number of cell responses, Experiment (OR10Q1) ([1]; odorant 200 μM, approximately 2000 transfected cells in three times of measuring (Table 4, FIG. 5)): 52
SMILES: O=C1CCCCCCCCCCCCCCO1 [Pentadecanolide, ω-cyclopentadecanolide]
Response of control cells, in words ([2]; 200 μM (FIG. 13)): did not respond | Number of cell responses, Control ([2]; odorant 200 μM, three times of measuring (Table 4, FIG. 5)): 2
